Source: patent publication US8466145B2, “Dipeptidyl peptidase IV inhibitors” (Orchid Chemicals & Pharmaceuticals Limited, priority 2009, dated 2013)

Key:
[1] = target: T1, human recombinant Dipeptidyl peptidase IV enzyme (hrDPP IV) (Homo sapiens, UniProt P27487); assay: DPP IV assay, cleavage of H-Gly-Pro-AMC by human recombinant DPP-IV enzyme; assay type: biochemical; details: for inhibition at 0.3 µM: 300 nM compound concentration
T1 construct: purchased R&D systems
Procedure: DPP IV activity was determined by the cleavage rate of 7-amino 4-methylcoumarin (AMC) from the substrate H-Gly-Pro-AMC. In brief, the assay was conducted by adding 3 ng of human recombinant Dipeptidyl peptidase IV enzyme (hrDPP IV, available commercially from R&D systems) in 70 μL of the assay buffer (25 mM HEPES, 140 mM NaCl and 1% BSA, pH 7.8) to a 96 well black flat bottom microtitre plate. Test compounds were added as 10 μL additions to all wells except blank and total activity wells. After incubation of test substance with enzyme for 60 minutes at room temperature, 10 μL of 100 μM substrate H-Gly-Pro-AMC was added. After mixing, the plate was left for 20 minutes at room temperature. Then the reaction was terminated by addition of 10 μL of 25% glacial acetic acid. Fluorescence was measured using Spectra Max Gemini XS (Molecular Devices, USA) at an excitation filter of 360 nm and emission filter of 460 nm.
Test compounds dissolved in DMSO were diluted with assay buffer at different concentrations and tested in duplicates. Percentage inhibition was calculated with respect to total activity. IC50 value was calculated using Prism Software.

C57BL/6 mice = assay: Oral glucose tolerance test; assay type: in vivo; details: compound 10 mg/kg; for Antihyperglycemic activity, reduction in AUC (blood glucose), Time 6.00 hr: glucose 2 g/kg challenge 6.00 hr after compound administration, NA = No activity
Procedure: Effect of compound on glucose tolerance was examined in 7 week old C57BL/6 mice. Animals were kept for 18 h fasting and were challenged with glucose (2 g/kg) 30 min after compound (10 mg/kg) administration. Blood samples for glucose measurement were obtained by tail bleed pre dose and at serial time points after the glucose load (30, 60 and 120 minutes). Blood glucose estimation was done by using ContourTS active strips on glucometer (Bayer). To find the time response on glucose excursion, animals were challenged with glucose at different time point after compound administration (0.5, 2, 4, 6, 8, 12 or 24 hours) at blood glucose was measured at pre (0 minute) and post (30, 60 and 120 minutes) glucose load.
Results of blood glucose were expressed as area under curve (AUC) was calculated using Prism software.

[2] = target: T2, human recombinant Dipeptidyl peptidase 9 enzyme (hrDPP 9) (Homo sapiens, UniProt Q86TI2); assay: DPP 9 assay, cleavage of H-Gly-Pro-AMC; assay type: biochemical; details: selectivity for DPP-IV over DPP 9
T2 construct: purchased R&D systems
Procedure: DPP 9 activity was determined by the cleavage rate of 7-amino 4-methylcoumarin (AMC) from the substrate H-Gly-Pro-AMC. In brief, the assay was conducted by adding 10 ng of human recombinant Dipeptidyl peptidase 9 enzyme (hrDPP 9, available commercially from R&D systems) in 70 μL of the assay buffer (50 mM TRIS and 5 mM EDTA, pH 7.7) to a 96 well black flat bottom microtitre plate. Test compound was added as 10 μL additions to all wells except blank and total activity wells. After incubation of test substance with enzyme for 30 minutes at room temperature, 10 μL of 100 μM substrate H-Gly-Pro-AMC was added. After mixing, the plate was left for 30 minutes at room temperature. Then the reaction was terminated by addition of 10 μL of 25% Glacial Acetic Acid. Fluorescence was measured using Spectra Max Gemini XS (Molecular Devices, USA) at an excitation filter of 360 nm and emission filter of 460 nm.
Test compound dissolved in DMSO were diluted with assay buffer at different concentrations and tested in duplicates. Percentage inhibition was calculated with respect to total activity. IC50 value was calculated by using Prism Software.

[3] = target: T3, human recombinant Dipeptidyl peptidase 8 enzyme (hrDPP 8) (Homo sapiens, UniProt Q6V1X1); assay: DPP 8 assay, cleavage of H-Ala-Pro-AFC; assay type: biochemical; details: selectivity for DPP-IV over DPP 8
T3 construct: purchased R&D systems
Procedure: DPP 8 activity was determined by the cleavage rate of 7-amino 4-fluoromethylcoumarin (AFC) from the substrate H-Ala-Pro-AFC. In brief, the assay was conducted by adding 30 ng of human recombinant Dipeptidyl peptidase 8 enzyme (hrDPP 8, available commercially from R&D systems) in 70 μL of the assay buffer (50 mM TRIS and 5 mM EDTA, pH 7.7) to a 96 well black flat bottom microtitre plate. Test compound was added as 10 μL additions to all wells except blank and total activity wells. After incubation of test substance with enzyme for 30 minutes at room temperature, 10 μL of 100 μM substrate H-Ala-Pro-AFC was added. After mixing, the plate was left for 30 minutes at room temperature. Then the reaction was terminated by addition of 10 μL of 25% Glacial Acetic Acid. Fluorescence was measured using Spectra Max Gemini XS (Molecular Devices, USA) at an excitation filter of 400 nm and emission filter of 505 nm.
Test compound dissolved in DMSO were diluted with assay buffer at different concentrations and tested in duplicates. Percentage inhibition was calculated with respect to total activity. IC50 value was calculated using Prism Software.

T2 sequence (Q86TI2 whole entry): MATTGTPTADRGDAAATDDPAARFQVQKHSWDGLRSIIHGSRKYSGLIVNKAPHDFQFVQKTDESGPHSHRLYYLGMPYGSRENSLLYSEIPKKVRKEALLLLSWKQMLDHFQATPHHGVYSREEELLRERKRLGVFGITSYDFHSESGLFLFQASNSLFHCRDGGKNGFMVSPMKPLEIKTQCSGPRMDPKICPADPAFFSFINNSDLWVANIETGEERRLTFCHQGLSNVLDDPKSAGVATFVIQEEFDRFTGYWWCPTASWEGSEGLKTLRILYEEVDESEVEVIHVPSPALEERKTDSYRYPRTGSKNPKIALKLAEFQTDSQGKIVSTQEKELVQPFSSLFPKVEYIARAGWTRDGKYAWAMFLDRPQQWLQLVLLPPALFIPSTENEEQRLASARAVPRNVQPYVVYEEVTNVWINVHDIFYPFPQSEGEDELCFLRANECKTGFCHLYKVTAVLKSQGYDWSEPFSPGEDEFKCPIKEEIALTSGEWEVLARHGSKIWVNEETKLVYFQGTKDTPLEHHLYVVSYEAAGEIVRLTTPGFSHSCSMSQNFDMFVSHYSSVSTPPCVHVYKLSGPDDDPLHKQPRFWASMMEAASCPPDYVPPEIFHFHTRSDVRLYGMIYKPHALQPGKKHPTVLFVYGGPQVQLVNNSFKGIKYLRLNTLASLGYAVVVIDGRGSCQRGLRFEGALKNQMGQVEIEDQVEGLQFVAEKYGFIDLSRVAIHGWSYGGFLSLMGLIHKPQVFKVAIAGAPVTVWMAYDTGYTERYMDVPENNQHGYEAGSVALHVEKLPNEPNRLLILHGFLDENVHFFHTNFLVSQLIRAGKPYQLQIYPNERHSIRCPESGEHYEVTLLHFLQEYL
T1 sequence (P27487 whole entry): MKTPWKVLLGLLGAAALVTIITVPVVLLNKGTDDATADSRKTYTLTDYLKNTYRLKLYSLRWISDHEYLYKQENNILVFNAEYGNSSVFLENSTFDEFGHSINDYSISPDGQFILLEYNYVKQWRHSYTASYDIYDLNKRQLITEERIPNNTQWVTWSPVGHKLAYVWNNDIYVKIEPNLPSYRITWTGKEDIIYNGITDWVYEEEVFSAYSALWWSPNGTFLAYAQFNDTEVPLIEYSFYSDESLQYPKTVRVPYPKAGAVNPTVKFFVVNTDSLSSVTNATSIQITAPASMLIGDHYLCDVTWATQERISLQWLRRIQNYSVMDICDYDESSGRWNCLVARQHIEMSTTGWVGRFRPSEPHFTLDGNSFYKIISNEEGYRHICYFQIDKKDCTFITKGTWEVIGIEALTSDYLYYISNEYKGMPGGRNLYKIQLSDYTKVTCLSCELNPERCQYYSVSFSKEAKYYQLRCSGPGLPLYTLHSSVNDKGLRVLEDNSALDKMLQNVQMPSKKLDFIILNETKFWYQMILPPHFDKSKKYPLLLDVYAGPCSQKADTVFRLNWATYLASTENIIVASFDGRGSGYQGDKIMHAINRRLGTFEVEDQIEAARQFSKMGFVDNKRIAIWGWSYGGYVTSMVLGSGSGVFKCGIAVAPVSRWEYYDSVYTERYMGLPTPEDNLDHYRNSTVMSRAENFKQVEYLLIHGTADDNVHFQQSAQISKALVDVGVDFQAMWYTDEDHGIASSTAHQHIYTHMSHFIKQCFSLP
T3 sequence (Q6V1X1 whole entry): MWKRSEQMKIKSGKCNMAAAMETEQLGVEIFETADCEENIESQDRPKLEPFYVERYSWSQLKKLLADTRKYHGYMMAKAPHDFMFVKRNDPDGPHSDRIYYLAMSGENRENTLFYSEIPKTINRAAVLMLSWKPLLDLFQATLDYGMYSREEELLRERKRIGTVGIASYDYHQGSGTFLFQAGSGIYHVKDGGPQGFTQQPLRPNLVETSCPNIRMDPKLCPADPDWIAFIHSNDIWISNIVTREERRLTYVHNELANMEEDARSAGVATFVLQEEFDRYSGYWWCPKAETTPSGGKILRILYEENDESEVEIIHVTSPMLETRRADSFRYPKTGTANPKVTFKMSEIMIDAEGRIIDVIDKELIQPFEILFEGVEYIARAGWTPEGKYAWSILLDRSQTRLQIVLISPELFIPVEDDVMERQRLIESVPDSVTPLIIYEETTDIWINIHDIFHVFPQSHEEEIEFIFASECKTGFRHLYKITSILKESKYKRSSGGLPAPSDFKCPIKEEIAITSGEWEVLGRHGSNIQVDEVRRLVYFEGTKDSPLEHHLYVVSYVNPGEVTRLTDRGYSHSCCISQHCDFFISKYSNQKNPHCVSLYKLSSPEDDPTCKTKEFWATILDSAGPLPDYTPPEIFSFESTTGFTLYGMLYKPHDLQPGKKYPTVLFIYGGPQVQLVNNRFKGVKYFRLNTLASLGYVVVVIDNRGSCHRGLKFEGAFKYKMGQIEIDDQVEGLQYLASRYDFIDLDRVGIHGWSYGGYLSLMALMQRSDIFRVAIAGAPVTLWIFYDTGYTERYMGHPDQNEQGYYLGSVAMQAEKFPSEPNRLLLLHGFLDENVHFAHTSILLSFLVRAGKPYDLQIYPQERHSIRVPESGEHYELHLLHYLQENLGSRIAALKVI

Row | Compound | IC50 [1] [nM] | melting point [°C] | Antihyperglycemic activity, reduction in AUC (blood glucose), Time 0.50 hr (C57BL/6 mice; glucose 2 g/kg challenge 0.50 hr after compound administration) [%] | Antihyperglycemic activity, reduction in AUC (blood glucose), Time 4.00 hr (C57BL/6 mice; glucose 2 g/kg challenge 4.00 hr after compound administration) [%] | Antihyperglycemic activity, reduction in AUC (blood glucose), Time 6.00 hr (C57BL/6 mice) [%] | Antihyperglycemic activity, reduction in AUC (blood glucose), Time 8.00 hr (C57BL/6 mice; glucose 2 g/kg challenge 8.00 hr after compound administration) [%] | Selectivity (Fold) DPP 9 [2] [Fold] | Selectivity (Fold) DPP 8 [3] [Fold] | inhibition at 0.3 µM [1] [%]
1 | Cc1nc(C[C@@H]2CC[C@](C)(NCC(=O)N3C[C@@H](F)C[C@H]3C#N)C2(C)C)no1 [Example 55, (2S,4S)-4-Fluoro-1-(2-((1S,3S)-1,2,2-trimethyl-3-((5-methyl-1,2,4-oxadiazol-3-yl)methyl)cyclopentylamino)acetyl)pyrrolidine-2-carbonitrile] | 4.39 | 131 to 133 | 48.30 | 45.69 | 28.28 | 18.63 | >9000 | – | –
2 | CC1(C)[C@H](NCC(=O)N2C[C@@H](F)C[C@H]2C#N)CC[C@]1(C)c1nc(-c2ccc(F)cc2)no1 [Example 64, (2S,4S)-4-Fluoro-1-(2-((1R,3S)-3-(3-(4-fluorophenyl)-1,2,4-oxadiazol-5-yl)-2,2,3-trimethylcyclopentylamino)acetyl)pyrrolidine-2-carbonitrile] | 76.1 | – | – | – | – | – | >250 | >450 | –
3 | CC1(C)[C@H](NCC(=O)N2C[C@@H](F)C[C@H]2C#N)CC[C@]1(C)c1nc(-c2cccnc2)no1 [Example 69, (2S,4S)-4-Fluoro-1-(2-((1R,3S)-2,2,3-trimethyl-3-(3-(pyridin-3-yl)-1,2,4-oxadiazol-5-yl)cyclopentylamino)acetyl)pyrrolidine-2-carbonitrile] | 18.6 | 70 to 75 | – | – | – | – | >150 | >1800 | –
4 | CC1(C)[C@H](CN2CCCCS2(=O)=O)CC[C@]1(C)NCC(=O)N1C[C@@H](F)C[C@H]1C#N [Example 30, (2S,4S)-1-(2-((1S,3R)-3-[(1,1-Dioxido-1,2-thiazinan-2-yl)methyl]-1,2,2-trimethylcyclopentylamino)acetyl)-4-fluoropyrrolidine-2-carbonitrile] | 7.29 | 186 to 190 | – | – | 30.90 | – | >1250 | – | –
5 | CC1(C)[C@@H](NCC(=O)N2C[C@@H](F)C[C@H]2C#N)CC[C@@]1(C)c1nc(-c2ccncc2)no1 [Example 70, (2S,4S)-4-Fluoro-1-(2-((1S,3R)-2,2,3-trimethyl-3-(3-(pyridin-4-yl)-1,2,4-oxadiazol-5-yl)cyclopentylamino)acetyl)pyrrolidine-2-carbonitrile] | 26.7 | 149 to 153 | – | – | – | – | >25 | >550 | –
6 | CC1(C)[C@@H](NCC(=O)N2C[C@@H](F)C[C@H]2C#N)CC[C@@]1(C)c1nc(-c2cnccn2)no1 [Example 72, (2S,4S)-4-Fluoro-1-(2-((1S,3R)-2,2,3-trimethyl-3-(3-(pyrazin-2-yl)-1,2,4-oxadiazol-5-yl)cyclopentylamino)acetyl)pyrrolidine-2-carbonitrile] | 32.3 | 65 to 70 | – | – | – | – | >35 | >1250 | –
7 | CC(C)c1nc(C[C@@H]2CC[C@](C)(NCC(=O)N3C[C@@H](F)C[C@H]3C#N)C2(C)C)no1 [Example 61, (2S,4S)-4-Fluoro-1-(2-((1S,3S)-3-((5-isopropyl-1,2,4-oxadiazol-3-yl)methyl)-1,2,2-trimethylcyclopentylamino)acetyl)pyrrolidine-2-carbonitrile methanesulfonate] | 13.8 | – | – | – | – | – | >7271 | – | 96.2
8 | CC1(C)[C@H](Cc2noc(C(F)(F)F)n2)CC[C@]1(C)NCC(=O)N1C[C@@H](F)C[C@H]1C#N [Example 56, (2S,4S)-4-Fluoro-1-(2-((1S,3S)-1,2,2-trimethyl-3-((5-(trifluoromethyl)-1,2,4-oxadiazol-3-yl)methyl)cyclopentylamino)acetyl)pyrrolidine-2-carbonitrile] | 19.6 | 130 to 131 | – | – | 7.07 | – | – | – | 95.7
9 | CC1(C)[C@H](Cc2noc(-c3ccncc3)n2)CC[C@]1(C)NCC(=O)N1C[C@@H](F)C[C@H]1C#N [Example 63, (2S,4S)-4-Fluoro-1-(2-((1S,3S)-1,2,2-trimethyl-3-((5-(pyridin-4-yl)-1,2,4-oxadiazol-3-yl)methyl)cyclopentylamino)acetyl)pyrrolidine-2-carbonitrile] | 19.2 | 180 to 184 | – | – | – | – | >1850 | – | 92.6
10 | CC1(C)[C@@H](CNc2ccc(C(F)(F)F)cn2)CC[C@@]1(C)NCC(=O)N1C[C@@H](F)C[C@H]1C#N [Example 27, (2S,4S)-4-Fluoro-1-(2-((1R,3S)-1,2,2-trimethyl-3-((5-(trifluoromethyl)pyridin-2-ylamino)methyl)cyclopentylamino)acetyl)pyrrolidine-2-carbonitrile] | – | 52 to 58 | – | – | – | – | – | – | 47.4
11 | CC1(C)[C@H](CN2CCCC2)CC[C@]1(C)NCC(=O)N1C[C@@H](F)C[C@H]1C#N [Example 37, (2S,4S)-4-Fluoro-1-(2-((1S,3R)-1,2,2-trimethyl-3-(pyrrolidin-1-ylmethyl)cyclopentylamino)acetyl)pyrrolidine-2-carbonitrile] | 22.4 | 123 to 126 | – | – | – | – | – | – | –
12 | CC1(C)[C@H](CNC(=O)C2CCC(F)(F)CC2)CC[C@]1(C)NCC(=O)N1C[C@@H](F)C[C@H]1C#N [Example 23, N-(((1R,3S)-3-(2-((2S,4S)-2-Cyano-4-fluoropyrrolidin-1-yl)-2-oxoethylamino)-2,2,3-trimethylcyclopentyl)methyl)-4,4-difluorocyclohexane carboxamide] | – | 189 to 194 | – | – | – | – | – | – | 86.2
13 | CC1(C)[C@@H](CN2CCCCC2)CC[C@@]1(C)NCC(=O)N1C[C@@H](F)C[C@H]1C#N [Example 39, (2S,4S)-4-Fluoro-1-(2-((1R,3S)-1,2,2-trimethyl-3-(piperidin-1-ylmethyl)cyclopentylamino)acetyl)pyrrolidine-2-carbonitrile] | – | 100 to 103 | – | – | – | – | – | – | 45.9
14 | CC1(C)[C@H](CNS(=O)(=O)c2ccc(F)cc2)CC[C@]1(C)NCC(=O)N1C[C@@H](F)C[C@H]1C#N [Example 20] | 105 | 75 to 78 | – | – | – | – | – | – | –
